Reference: PubChem BioAssay (NCI)
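Exposure lasted 48 hours, with cells grown in 96-well plates and compounds tested at five concentrations. The concentration for 50% growth inhibition is given as GI50. At the TGI there is no net growth.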

Assays:
Assay in all cases: inhibition of tumour cell growth, NCI panel, 48 h
SN12C renal = test system: SN12C renal
BT-549 breast = test system: BT-549 breast
DMS 273 small cell lung = test system: DMS 273 small cell lung
XF 498 CNS = test system: XF 498 CNS
SW-620 colon = test system: SW-620 colon
HCT-15 colon = test system: HCT-15 colon
HCC-2998 colon = test system: HCC-2998 colon
DMS 114 small cell lung = test system: DMS 114 small cell lung
MDA-MB-231 breast = test system: MDA-MB-231 breast
KM12 colon = test system: KM12 colon
HCT-116 colon = test system: HCT-116 colon
SK-MEL-5 melanoma = test system: SK-MEL-5 melanoma
K-562 leukemia = test system: K-562 leukemia
IGROV1 ovarian = test system: IGROV1 ovarian
OVCAR-3 ovarian = test system: OVCAR-3 ovarian
MDA-N = test system: MDA-N
NCI-H226 lung = test system: NCI-H226 lung
MALME-3M melanoma = test system: MALME-3M melanoma
MCF7 breast = test system: MCF7 breast
COLO 205 colon = test system: COLO 205 colon
TK-10 renal = test system: TK-10 renal
NCI-H460 lung = test system: NCI-H460 lung
UACC-257 melanoma = test system: UACC-257 melanoma
MDA-MB-435 = test system: MDA-MB-435
ACHN renal = test system: ACHN renal
SNB-75 CNS = test system: SNB-75 CNS
LXFL 529 NSCLC = test system: LXFL 529 NSCLC
HL-60(TB) leukemia = test system: HL-60(TB) leukemia
NCI-H23 lung = test system: NCI-H23 lung
RXF-631 renal = test system: RXF-631 renal
DLD-1 colon = test system: DLD-1 colon
NCI/ADR-RES ovarian = test system: NCI/ADR-RES ovarian
T-47D breast = test system: T-47D breast
U251 CNS = test system: U251 CNS
SR leukemia = test system: SR leukemia
UO-31 renal = test system: UO-31 renal
PC-3 prostate = test system: PC-3 prostate
CAKI-1 renal = test system: CAKI-1 renal
SK-OV-3 ovarian = test system: SK-OV-3 ovarian
A498 renal = test system: A498 renal
HOP-62 NSCLC = test system: HOP-62 NSCLC
OVCAR-4 ovarian = test system: OVCAR-4 ovarian
RXF 393 renal = test system: RXF 393 renal
SF-539 CNS = test system: SF-539 CNS
DU-145 prostate = test system: DU-145 prostate
HS 578T breast = test system: HS 578T breast
SK-MEL-28 melanoma = test system: SK-MEL-28 melanoma
A549 NSCLC = test system: A549 NSCLC
SNB-78 CNS = test system: SNB-78 CNS
OVCAR-5 ovarian = test system: OVCAR-5 ovarian
LOX IMVI melanoma = test system: LOX IMVI melanoma
SF-268 CNS = test system: SF-268 CNS
HOP-92 NSCLC = test system: HOP-92 NSCLC
786-0 renal = test system: 786-0 renal
RPMI-8226 leukemia = test system: RPMI-8226 leukemia
NCI-H522 lung = test system: NCI-H522 lung
CCRF-CEM leukemia = test system: CCRF-CEM leukemia
M19-MEL melanoma = test system: M19-MEL melanoma
EKVX NSCLC = test system: EKVX NSCLC
SK-MEL-2 melanoma = test system: SK-MEL-2 melanoma
HT29 colon = test system: HT29 colon
SNB-19 CNS = test system: SNB-19 CNS
UACC-62 melanoma = test system: UACC-62 melanoma
M14 melanoma = test system: M14 melanoma
OVCAR-8 ovarian = test system: OVCAR-8 ovarian
SF-295 CNS = test system: SF-295 CNS
MOLT-4 leukemia = test system: MOLT-4 leukemia
KM20L2 colon = test system: KM20L2 colon

O=P(O)(NCCCl)NCCCl gave a TGI (SN12C renal) of over 100 µM, a TGI (BT-549 breast) of over 100 µM and a TGI (DMS 273 small cell lung) of over 100 µM. The GI50 (XF 498 CNS) was over 100 µM, the TGI (XF 498 CNS) was over 100 µM and the GI50 (SW-620 colon) was over 100 µM. It also gave a TGI (SW-620 colon) of over 100 µM, a GI50 (HCT-15 colon) of over 100 µM and a TGI (HCT-15 colon) of over 100 µM. For the same molecule, the TGI (HCC-2998 colon) was over 100 µM, the GI50 (DMS 114 small cell lung) was 99.1 µM and the TGI (DMS 114 small cell lung) was over 100 µM. For the same molecule, the TGI (MDA-MB-231 breast) was over 100 µM, the GI50 (KM12 colon) was over 100 µM and the TGI (KM12 colon) was over 100 µM. The TGI (HCT-116 colon) was over 100 µM, the GI50 (SK-MEL-5 melanoma) was over 100 µM and the TGI (SK-MEL-5 melanoma) was over 100 µM. For the same molecule, the TGI (K-562 leukemia) was over 100 µM, the TGI (IGROV1 ovarian) was over 100 µM and the GI50 (OVCAR-3 ovarian) was over 100 µM. The TGI (OVCAR-3 ovarian) was over 100 µM, the TGI (MDA-N) was over 100 µM and the TGI (NCI-H226 lung) was over 100 µM. The TGI (MALME-3M melanoma) was over 100 µM, the TGI (MCF7 breast) was over 100 µM and the TGI (COLO 205 colon) was over 100 µM. For the same molecule, the GI50 (TK-10 renal) was over 100 µM, the TGI (TK-10 renal) was over 100 µM and the GI50 (NCI-H460 lung) was 4.03 µM. It also gave a TGI (NCI-H460 lung) of over 100 µM, a GI50 (UACC-257 melanoma) of over 100 µM and a TGI (UACC-257 melanoma) of over 100 µM. It also gave a TGI (MDA-MB-435) of over 100 µM, a TGI (ACHN renal) of over 100 µM and a GI50 (SNB-75 CNS) of 7.07 µM. It also gave a TGI (SNB-75 CNS) of over 100 µM, a GI50 (LXFL 529 NSCLC) of over 100 µM and a TGI (LXFL 529 NSCLC) of over 100 µM. It also gave a TGI (HL-60(TB) leukemia) of over 100 µM, a TGI (NCI-H23 lung) of over 100 µM and a TGI (RXF-631 renal) of over 100 µM. For the same molecule, the GI50 (DLD-1 colon) was over 100 µM, the TGI (DLD-1 colon) was over 100 µM and the TGI (NCI/ADR-RES ovarian) was over 100 µM. For the same molecule, the TGI (T-47D breast) was over 100 µM, the GI50 (U251 CNS) was over 100 µM and the TGI (U251 CNS) was over 100 µM. It also gave a GI50 (SR leukemia) of 40.6 µM, a TGI (SR leukemia) of over 100 µM and a TGI (UO-31 renal) of over 100 µM. The TGI (PC-3 prostate) was over 100 µM, the TGI (CAKI-1 renal) was over 100 µM and the TGI (SK-OV-3 ovarian) was over 100 µM. It also gave a TGI (A498 renal) of over 100 µM, a TGI (HOP-62 NSCLC) of over 100 µM and a TGI (OVCAR-4 ovarian) of over 100 µM. For the same molecule, the GI50 (RXF 393 renal) was over 100 µM, the TGI (RXF 393 renal) was over 100 µM and the TGI (SF-539 CNS) was over 100 µM. It also gave a TGI (DU-145 prostate) of over 100 µM, a TGI (HS 578T breast) of over 100 µM and a TGI (SK-MEL-28 melanoma) of over 100 µM. It also gave a TGI (A549 NSCLC) of over 100 µM, a GI50 (SNB-78 CNS) of over 100 µM and a TGI (SNB-78 CNS) of over 100 µM. For the same molecule, the GI50 (OVCAR-5 ovarian) was over 100 µM, the TGI (OVCAR-5 ovarian) was over 100 µM and the TGI (LOX IMVI melanoma) was over 100 µM. The TGI (SF-268 CNS) was over 100 µM, the TGI (HOP-92 NSCLC) was over 100 µM and the TGI (786-0 renal) was over 100 µM. The TGI (RPMI-8226 leukemia) was over 100 µM, the TGI (NCI-H522 lung) was over 100 µM and the TGI (CCRF-CEM leukemia) was over 100 µM. For the same molecule, the GI50 (M19-MEL melanoma) was over 100 µM, the TGI (M19-MEL melanoma) was over 100 µM and the GI50 (EKVX NSCLC) was over 100 µM. The TGI (EKVX NSCLC) was over 100 µM, the TGI (SK-MEL-2 melanoma) was over 100 µM and the GI50 (HT29 colon) was over 100 µM. The TGI (HT29 colon) was over 100 µM, the GI50 (SNB-19 CNS) was over 100 µM and the TGI (SNB-19 CNS) was over 100 µM. For the same molecule, the TGI (UACC-62 melanoma) was over 100 µM, the GI50 (M14 melanoma) was 5.78 µM and the TGI (M14 melanoma) was over 100 µM. The GI50 (OVCAR-8 ovarian) was over 100 µM, the TGI (OVCAR-8 ovarian) was over 100 µM and the TGI (SF-295 CNS) was over 100 µM. The TGI (MOLT-4 leukemia) was over 100 µM.

With Cc1cc(N(CCC#N)CCC#N)ccc1/C=C\C(=O)Nc1ccccc1 the TGI (SN12C renal) was over 100 µM, the TGI (DMS 273 small cell lung) was over 100 µM and the TGI (XF 498 CNS) was over 100 µM. It also gave a TGI (SW-620 colon) of over 100 µM, a TGI (HCT-15 colon) of over 100 µM and a TGI (HCC-2998 colon) of 80.5 µM. It also gave a TGI (DMS 114 small cell lung) of over 100 µM, a TGI (KM12 colon) of over 100 µM and a TGI (HCT-116 colon) of over 100 µM. For the same molecule, the TGI (SK-MEL-5 melanoma) was over 100 µM, the TGI (K-562 leukemia) was over 100 µM and the TGI (IGROV1 ovarian) was over 100 µM. The TGI (OVCAR-3 ovarian) was over 100 µM, the TGI (NCI-H226 lung) was over 100 µM and the TGI (MALME-3M melanoma) was over 100 µM. The TGI (COLO 205 colon) was over 100 µM, the TGI (TK-10 renal) was over 100 µM and the TGI (NCI-H460 lung) was over 100 µM. The TGI (UACC-257 melanoma) was over 100 µM, the TGI (ACHN renal) was over 100 µM and the TGI (SNB-75 CNS) was over 100 µM. The TGI (LXFL 529 NSCLC) was over 100 µM, the TGI (HL-60(TB) leukemia) was over 100 µM and the TGI (NCI-H23 lung) was over 100 µM. The TGI (RXF-631 renal) was over 100 µM, the TGI (DLD-1 colon) was over 100 µM and the TGI (U251 CNS) was over 100 µM. It also gave a TGI (UO-31 renal) of over 100 µM, a TGI (CAKI-1 renal) of over 100 µM and a TGI (SK-OV-3 ovarian) of over 100 µM. For the same molecule, the TGI (A498 renal) was over 100 µM, the TGI (HOP-62 NSCLC) was over 100 µM and the TGI (OVCAR-4 ovarian) was over 100 µM. For the same molecule, the TGI (SF-539 CNS) was over 100 µM, the TGI (SK-MEL-28 melanoma) was over 100 µM and the TGI (A549 NSCLC) was over 100 µM. It also gave a TGI (OVCAR-5 ovarian) of over 100 µM, a TGI (LOX IMVI melanoma) of over 100 µM and a TGI (SF-268 CNS) of over 100 µM. The TGI (HOP-92 NSCLC) was over 100 µM, the TGI (KM20L2 colon) was over 100 µM and the TGI (786-0 renal) was over 100 µM. The TGI (RPMI-8226 leukemia) was over 100 µM, the TGI (NCI-H522 lung) was over 100 µM and the TGI (CCRF-CEM leukemia) was over 100 µM. For the same molecule, the TGI (M19-MEL melanoma) was over 100 µM, the TGI (EKVX NSCLC) was over 100 µM and the TGI (SK-MEL-2 melanoma) was over 100 µM. For the same molecule, the TGI (HT29 colon) was over 100 µM, the TGI (SNB-19 CNS) was over 100 µM and the TGI (UACC-62 melanoma) was over 100 µM. For the same molecule, the TGI (M14 melanoma) was over 100 µM, the TGI (OVCAR-8 ovarian) was over 100 µM and the TGI (SF-295 CNS) was over 100 µM. The TGI (MOLT-4 leukemia) was over 100 µM.
